Calls of active or inactive are those of the source. No cut-off for these calls is given here.

Experiment [1] concerns HeLa. In words: Down regulation of NCOA7 mRNA expression in human HeLa cells at 0.5 mM after 1 hr by qRT-PCR method. It counts as functional, cell-based. In general terms: Quantitative PCR measures a nucleic acid by following its amplification.
For experiment [2], the system named is HeLa. In words: Induction of DNA damage in human HeLa cells at 0.1 mM in presence of antioxidant vitamin E after 1 hr by alkaline comet assay. The format is functional, cell-based.
For experiment [3], the system named is HeLa. In words: Induction of ROS production in human HeLa cells at 0.1 mM after 24 hrs by H2DCFDA probe based fluorescence assay. The format is functional, cell-based.
Experiment [4] relates to HeLa. The experiment in a line: Upregulation of FHL2 mRNA expression in human HeLa cells at 0.5 mM after 1 hr by qRT-PCR method. It counts as functional, cell-based.
For experiment [5], the system named is Escherichia coli DH5[alpha]. In words: Induction of DNA damage in Escherichia coli DH5alpha supercoiled pUC19 DNA assessed as increase in open circular forms at 0.1 to 1 mM by ethidium bromide staining based agarose gel electrophoresis.
In experiment [6] the test system is HeLa. The experiment in a line: Induction of DNA damage in human HeLa cells assessed as increase in oxidative DNA lesions by measuring oxidized pyrimidines at 0.1 mM preincubated for 1 hr followed by endonuclease3 addition measured after 30 mins by alkaline comet assay. It counts as functional, cell-based.
Experiment [7] deals with HeLa. In words: Geno-toxicity in human HeLa cells assessed as induction of DNA damage at pH 12.1 after 1 hr by comet assay. It counts as functional, cell-based.
In experiment [8] the test system is Escherichia coli DH5[alpha]. The experiment in a line: Induction of DNA damage in Escherichia coli DH5alpha supercoiled pUC19 DNA assessed as decrease in covalently closed circular DNA forms at 0.1 to 1 mM by ethidium bromide staining based agarose gel electrophoresis.
The subject of experiment [9] is HeLa. In words: Induction of DNA damage in human HeLa cells assessed as increase in oxidative DNA lesions by measuring oxidized purines at 0.1 mM preincubated for 1 hr followed by formamidopyrimidine DNA glycosylase addition measured after 30 mins by alkaline comet assay. The format is functional, cell-based.
Experiment [10] deals with HeLa. The experiment in a line: Geno-toxicity in human HeLa cells assessed as induction of DNA damage at 0.1 mM at 4 degC by alkaline comet assay. The format is functional, cell-based.
In experiment [11] the test system is HeLa. The experiment in a line: Induction of DNA damage in human HeLa cells at 0.1 mM in presence of antioxidant epikatehin after 1 hr by alkaline comet assay. The format is functional, cell-based.
The test system of experiment [12] is HeLa. The experiment in a line: Geno-toxicity in human HeLa cells assessed as induction of DNA damage at 0.1 mM by alkaline comet assay. It counts as functional, cell-based. Conditions: TDE = time-dependent effect.
Experiment [13] relates to HeLa. In words: Induction of mitochondrial membrane depolarization in human HeLa cells at 0.5 mM by JC-1 staining based flow cytometry. The format is functional, cell-based.
For experiment [14], the system named is HeLa. In words: Geno-toxicity in human HeLa cells assessed as induction of DNA damage by measuring double stranded DNA breaks at 0.02 to 0.5 mM after 1 hr by neutral comet assay. The format is functional, cell-based.
In experiment [15] the test system is HeLa. The experiment in a line: Cytotoxicity against human HeLa cells assessed as decrease in cell viability at 0.6 mM in presence of 5 mM glucose after 14 hrs by WST-8 based CCK-8 assay. The format is functional. (In general: Tetrazolium dyes change colour on reduction, which living cells bring about.)
Experiment [16] deals with Escherichia coli DH5[alpha]. In words: Induction of DNA damage in Escherichia coli DH5alpha supercoiled pUC19 DNA assessed as increase in linear DNA forms at 0.1 to 1 mM by ethidium bromide staining based agarose gel electrophoresis.
Experiment [17] has as its system HeLa. In words: Geno-toxicity in human HeLa cells assessed as induction of DNA damage after 1 hr by alkaline comet assay. It counts as functional, cell-based.
Experiment [18] concerns HeLa. In words: Geno-toxicity in human HeLa cells assessed as induction of DNA damage at 0.6 mM in presence of 5 mM glucose after 1 hr by alkaline comet assay. The format is functional, cell-based.
Experiment [19] relates to HeLa. The experiment in a line: Induction of DNA damage in human HeLa cells assessed as increase in oxidative DNA lesions by measuring oxidized purines at 0.1 mM preincubated for 1 hr followed by human 8-oxoguanine DNA N-glycosylase1 addition measured after 30 mins by alkaline comet assay. The format is functional, cell-based.
For experiment [20], the system named is HeLa. In words: Geno-toxicity in human HeLa cells assessed as induction of DNA damage at 0.1 mM at 37 degC by alkaline comet assay. The format is functional, cell-based.
Experiment [21] deals with HeLa. In words: Upregulation of NOX5 mRNA expression in human HeLa cells at 0.5 mM after 1 hr by qRT-PCR method. It counts as functional, cell-based.
For experiment [22], the system named is HeLa. In words: Induction of apoptosis in human HeLa cells at 0.5 mM after 4 hrs by Annexin-V-FITC/PI staining based flow cytometry. The format is functional, cell-based. (In flow cytometry, cells or beads pass a laser one at a time.)
Experiment [23] has as its system HeLa. The experiment in a line: Induction of oxidative DNA damage in human HeLa cells at 0.05 to 0.5 mM in presence of PBN spin trap after 1 hr by alkaline comet assay. It counts as functional, cell-based.
Experiment [24] relates to HeLa. The experiment in a line: Geno-toxicity in human HeLa cells assessed as induction of DNA damage at 0.2 mM by alkaline comet assay. The format is functional, cell-based. Conditions: TDE = time-dependent effect.
Experiment [25] concerns HeLa. In words: Geno-toxicity in human HeLa cells assessed as induction of DNA damage at 0.5 mM in presence of 5 mM glucose after 1 hr by alkaline comet assay. The format is functional, cell-based.
Experiment [26] deals with HeLa. The experiment in a line: Induction of oxidative DNA damage in human HeLa cells at 0.19 to 0.76 mM in presence of PBN spin trap after 1 hr by alkaline comet assay. It counts as functional, cell-based.
Experiment [27] deals with HeLa. In words: Induction of ROS production in human HeLa cells at 0.2 mM after 24 hrs by H2DCFDA probe based fluorescence assay. The format is functional, cell-based.
For experiment [28], the system named is HeLa. The experiment in a line: Geno-toxicity in human HeLa cells assessed as induction of DNA damage at 0.2 mM at 37 degC by alkaline comet assay. The format is functional, cell-based.
Experiment [29] concerns HeLa. The experiment in a line: Geno-toxicity in human HeLa cells assessed as induction of DNA damage by measuring double stranded DNA breaks at 0.19 to 0.76 mM after 1 hr by neutral comet assay. It counts as functional, cell-based.
In experiment [30] the test system is HeLa. The experiment in a line: Geno-toxicity in human HeLa cells assessed as induction of DNA damage at 0.2 mM at 4 degC by alkaline comet assay. It counts as functional, cell-based.
The subject of experiment [31] is HeLa. The experiment in a line: Cytotoxicity against human HeLa cells assessed as decrease in cell viability at 0.5 mM in presence of 5 mM glucose after 14 hrs by WST-8 based CCK-8 assay. It counts as functional.

In the case of `OC[C@H]1SC(O)[C@H](O)[C@@H](O)[C@@H]1O` (stereo partly specified), the outcome in experiment [1], in [3], in experiment [4], in experiment [6], in experiment [9] and in experiment [10] was Active. Further, the result in experiment [15], in experiment [18], in experiment [19] and in experiment [21] was Active. In addition, the outcome in [2], in experiment [5], in experiment [8], in [11], in [13] and in experiment [14] was inactive. Further, the result in experiment [16], in experiment [20], in experiment [22] and in experiment [23] was inactive. Besides, the Activity entry in experiment [7] is “Dose-dependent effect”; in [12] it was “Tde”; in experiment [17], “Dose-dependent effect”.
As to `OC[C@@]1(O)SC[C@@H](O)[C@@H](O)[C@@H]1O`, the outcome in experiment [1], in [4], in experiment [6], in [25], in [9] and in experiment [27] was Active. Moreover, the result in [19], in experiment [21], in experiment [30] and in experiment [31] was Active. Further, the outcome in experiment [2], in [5], in [8], in experiment [11], in experiment [13] and in experiment [26] was inactive. Further, the result in experiment [16], in experiment [28], in [29] and in [22] was inactive. Also, the Activity result in experiment [24] is “Tde”; in experiment [7] it was “Dose-dependent effect”; in experiment [17] it was “Dose-dependent effect”.

The values above are taken from ChEMBL document CHEMBL3997790, “The oxidative induction of DNA lesions in cancer cells by 5-thio-d-glucose and 6-thio-d-fructopyranose and their genotoxic effects. Part 3” (Bioorg Med Chem Lett, 2017).
